Experimental data from BindingDB's records for patent US8497376 (Janssen Pharmaceutica, 2013).

Target: Macrophage colony-stimulating factor 1 receptor (Homo sapiens, UniProt P07333)
Test: Fluorescence Polarization Competition Assay
Conditions: pH 7.5
From the text: An autophosphorylation, fluroescence polarization competition immunoassay was used to determine the potency for c-fms inhibition.

Chain of Macrophage colony-stimulating factor 1 receptor (P07333 whole entry): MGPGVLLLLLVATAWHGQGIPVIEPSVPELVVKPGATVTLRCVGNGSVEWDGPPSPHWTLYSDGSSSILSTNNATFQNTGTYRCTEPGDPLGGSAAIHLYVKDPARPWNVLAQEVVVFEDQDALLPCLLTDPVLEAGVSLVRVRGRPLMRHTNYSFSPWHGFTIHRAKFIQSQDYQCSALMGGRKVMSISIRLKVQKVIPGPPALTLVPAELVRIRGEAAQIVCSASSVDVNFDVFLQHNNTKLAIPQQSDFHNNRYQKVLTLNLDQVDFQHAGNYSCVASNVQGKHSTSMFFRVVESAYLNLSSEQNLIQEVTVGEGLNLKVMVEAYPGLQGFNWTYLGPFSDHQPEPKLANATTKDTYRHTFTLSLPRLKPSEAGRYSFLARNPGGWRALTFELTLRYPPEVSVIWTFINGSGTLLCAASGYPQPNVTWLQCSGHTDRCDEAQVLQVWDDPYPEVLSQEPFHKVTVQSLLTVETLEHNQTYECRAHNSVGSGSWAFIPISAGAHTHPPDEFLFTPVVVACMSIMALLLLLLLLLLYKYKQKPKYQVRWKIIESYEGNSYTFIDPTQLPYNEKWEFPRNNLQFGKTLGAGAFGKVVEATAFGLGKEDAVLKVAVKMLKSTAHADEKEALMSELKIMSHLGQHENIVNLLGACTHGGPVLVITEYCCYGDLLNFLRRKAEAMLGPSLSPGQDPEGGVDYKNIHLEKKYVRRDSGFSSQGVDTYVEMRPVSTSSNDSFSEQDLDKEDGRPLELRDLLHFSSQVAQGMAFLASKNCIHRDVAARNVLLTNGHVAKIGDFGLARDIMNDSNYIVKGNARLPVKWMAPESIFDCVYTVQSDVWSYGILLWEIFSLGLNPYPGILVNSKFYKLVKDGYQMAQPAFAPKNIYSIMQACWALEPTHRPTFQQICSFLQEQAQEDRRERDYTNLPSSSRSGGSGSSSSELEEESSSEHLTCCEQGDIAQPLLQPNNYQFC

- IC50: 0.43 nM
Compound: CC1(C)CC=C(c2cc([C@]3(O)C[C@@]4(CO)C=C[C@@](CO)(C3)O4)ccc2NC(=O)c2ncc(C#N)[nH]2)CC1 [US8497376, 2]
